Source: ChEMBL document CHEMBL6127090, “Further Probing the Properties of a Unique Sponge-derived Alkaloid Through the Isolation of a New (-)-(5E)-(8R)-(14Z)-Mycothiazole Analogue” (J Nat Prod, 2024)
Active and inactive are the calls of the source. The rule behind the calls is not given here.

Assays:
[1] = test system: Caenorhabditis elegans; assay: Activation of unfolded protein response in Caenorhabditis elegans mitochondria at 5 uM; format: functional, organism-based
[2] = test system: Caenorhabditis elegans; assay: Inhibition of mitochondrial electron transport chain in Caenorhabditis elegans assessed as increase in life span at 5 uM; format: functional, organism-based
[3] = test system: Caenorhabditis elegans; assay: Reduction in oxygen consumption rate in Caenorhabditis elegans at 5 uM incubated for 24 hrs; format: functional, organism-based
[4] = test system: Caenorhabditis elegans; assay: Induction of mitochondrial morphology change in Caenorhabditis elegans at 5 uM incubated for 24 hrs; format: functional, organism-based
[5] = test system: HepG2; assay: Cytotoxicity against human HepG2 cells incubated for 3 days by trypan blue assay; format: functional, cell-based; conditions: HepG2, 72 h
[6] = test system: PANC-1; assay: Cytotoxicity against human PANC-1 cells incubated for 3 days by trypan blue assay; format: functional, cell-based; conditions: PANC-1, 72 h
[7] = Toxicity in iv dosed mouse assessed as maximum tolerated dose; format: organism-based; conditions: in vivo

Structure (SMILES) | Activity [1] | Activity [2] | Activity [3] | Activity [4] | IC50 [5] [nM] | IC50 [6] [nM] | MTD [7] [mg/kg]
C=CC/C=C\Cc1csc(C(C)(C)[C@H](O)C/C=C\C(=C)CCNC(=O)OC)n1 | inactive | Active | Active | inactive |  |  | 
C=CC/C=C\Cc1csc(C(C)(C)[C@H](O)C/C=C/C(=C)CCNC(=O)OC)n1 | inactive | Active | Active | inactive | 115 | 112 | 
C=CC/C=C\Cc1csc(C(C)(C)[C@H](C/C=C\C(=C)CCNC(=O)OC)OC(C)=O)n1 | inactive | Active | Active | inactive |  |  | 0.1
C=CC/C=C\Cc1csc(C(C)(C)[C@@H](O)C/C=C\C(=C)CCNC(=O)OC)n1 | inactive | Active | Active | inactive |  |  | 
